This passage reports melting point results from patent US8536332B2, “Modulating signal transduction pathways with substituted pyridol [2,3-b] pyrazines” (Aeterna Zentaris GmbH, priority 2007, dated 2013).

The term melting point denotes the temperature of the solid-liquid transition.

`CCNC(=S)Nc1ccc2ncc(Nc3ccc(O)c(C)c3)nc2n1` [Compound 331, 1-Ethyl-3-[3-(4-hydroxy-3-methyl-phenylamino)-pyrido[2,3-b]pyrazin-6-yl]-thiourea]: the melting point stood at 258 °C.

In turn, `CCNC(=O)Nc1ccc2ncc(-c3cccc(C)c3C)nc2n1` [Compound 107, 1-[3-(2,3-Dimethyl-phenyl)-pyrido[2,3-b]pyrazin-6-yl]-3-ethyl-urea] gave a melting point of 260 °C.

As to `CCNC(=S)Nc1cnc2ccc(-c3ccc(C)cc3)nc2n1` [Compound 651, 1-Ethyl-3-(6-p-tolyl-pyrido[2,3-b]pyrazin-3-yl)-thiourea], the melting point lay in the range of 230 to 231 °C.

The compound `CCNC(=O)Nc1cnc2ccc(-c3cc(C)cc(Br)c3OC)nc2n1` [Compound 639, 1-[6-(3-Bromo-2-methoxy-5-methyl-phenyl)-pyrido[2,3-b]pyrazin-3-yl]-3-ethyl-urea] registered a melting point of 250 to 252 °C.

For `CCNC(=O)Nc1cnc2ccc(-c3cc(C)c(OC(C)C)c(C)c3)nc2n1` [Compound 597, 1-Ethyl-3-[6-(4-isopropoxy-3,5-dimethyl-phenyl)-pyrido[2,3-b]pyrazin-3-yl]-urea], the melting point was 221 °C.

For the compound `CCNC(=S)Nc1ccc2ncc(Nc3ccc(O)cc3)nc2n1` [Compound 161, 1-Ethyl-3-[3-(4-hydroxy-phenylamino)-pyrido[2,3-b]pyrazin-6-yl]-thiourea], the melting point turned out to be 262 °C.

`CCNC(=O)Nc1ccc2ncc(-c3cc(C)cc(Br)c3OCc3ccccc3)nc2n1` [Compound 109, 1-[3-(2-Benzyloxy-3-bromo-5-methyl-phenyl)-pyrido[2,3-b]pyrazin-6-yl]-3-ethyl-urea] gave a melting point of 236 to 238 °C.

On to `CCNC(=O)Nc1cnc2ccc(Nc3ccc(C)cc3)nc2n1` [Compound 1, 1-Ethyl-3-(6-p-tolylamino-pyrido[2,3-b]pyrazin-3-yl)-urea], for which the melting point came to 235 °C.

`C=CCNC(=O)Nc1cnc2ccc(-c3ccc(O)c(OC)c3)nc2n1` [Compound 18, 1-Allyl-3-[6-(4-hydroxy-3-methoxy-phenyl)-pyrido[2,3-b]pyrazin-3-yl]-urea]: the melting point fell in the range of 211 to 213 °C.

Turning to `Cc1cc(-c2ccc3ncc(NC(=O)NC4CCN(C(=O)C(F)(F)F)CC4)nc3n2)cc(C)c1O` [Compound 589], the melting point was 251 to 253 °C.

Take `CCNC(=O)Nc1cnc2ccc(-c3ccc(Cl)cc3)nc2n1` [Compound 6, 1-[6-(4-Chloro-phenyl)-pyrido[2,3-b]pyrazin-3-yl]-3-ethyl-urea]: the melting point was 276 °C.

`CCNC(=O)Nc1ccc2ncc(Nc3cccc(CO)c3)nc2n1` [Compound 154, 1-Ethyl-3-[3-(3-hydroxymethyl-phenylamino)-pyrido[2,3-b]pyrazin-6-yl]-urea] yielded a melting point of 238 °C.

`CCNC(=S)Nc1ccc2ncc(Nc3cc(Cl)c(Cl)c(Cl)c3)nc2n1` [Compound 465, 1-Ethyl-3-[3-(3,4,5-trichloro-phenylamino)-pyrido[2,3-b]pyrazin-6-yl]-thiourea] came in with a melting point of 277 °C.

`CCNC(=O)Nc1ccc2ncc(-c3ccc(OCCCN4CCOCC4)c(OC)c3)nc2n1` [Compound 63, 1-Ethyl-3-{3-[3-methoxy-4-(3-morpholin-4-yl-propoxy)-phenyl]-pyrido[2,3-b]pyrazin-6-yl}-urea] yielded a melting point of 225 to 227 °C.

Regarding `CCNC(=S)Nc1ccc2ncc(Nc3ccc(F)c([N+](=O)[O-])c3)nc2n1` [Compound 489, 1-Ethyl-3-[3-(4-fluoro-3-nitro-phenylamino)-pyrido[2,3-b]pyrazin-6-yl]-thiourea], the melting point is 260 °C.

In the case of `COc1cc(-c2ccc3ncc(NC(=O)Nc4ccc(N5CCN(C)CC5)cc4)nc3n2)ccc1O` [Compound 620, 1-[6-(4-Hydroxy-3-methoxy-phenyl)-pyrido[2,3-b]pyrazin-3-yl]-3-[4-(4-methyl-piperazin-1-yl)-phenyl]-urea], the melting point lay in the range of 207 to 210 °C.

`CCNC(=O)Nc1ccc2ncc(-c3cccc(F)c3)nc2n1` [Compound 129, 1-Ethyl-3-[3-(3-fluoro-phenyl)-pyrido[2,3-b]pyrazin-6-yl]-urea] gave a melting point of 283 to 286 °C.

Take `CCNC(=O)Nc1ccc2ncc(Nc3cc(C)c(O)cc3C)nc2n1` [Compound 446, 1-Ethyl-3-[3-(4-hydroxy-2,5-dimethyl-phenylamino)-pyrido[2,3-b]pyrazin-6-yl]-urea]: the melting point turned out to be 222 °C.

Consider `COc1cc(-c2ccc3ncc(NC(=O)Nc4ccc(Cl)cc4)nc3n2)ccc1O` [Compound 529, 1-(4-Chloro-phenyl)-3-[6-(4-hydroxy-3-methoxy-phenyl)-pyrido[2,3-b]pyrazin-3-yl]-urea], for which the melting point is 224 to 226 °C.

Take `COc1cc(-c2ccc3ncc(NC(=O)Nc4ccccc4)nc3n2)ccc1O` [Compound 3, 1-[6-(4-Hydroxy-3-methoxy-phenyl)-pyrido[2,3-b]pyrazin-3-yl]-3-phenyl-urea]: the melting point turned out to be 240 °C.

Consider `CCNC(=O)Nc1ccc2ncc(-c3cc(C(C)=O)ccc3F)nc2n1` [Compound 79, 1-[3-(5-Acetyl-2-fluoro-phenyl)-pyrido[2,3-b]pyrazin-6-yl]-3-ethyl-urea], for which the melting point was 238.1 to 241.8 °C.

Regarding `COc1cc(-c2ccc3ncc(NC(=O)Nc4ccc5sccc5c4)nc3n2)ccc1O` [Compound 609], the melting point lay in the range of 257 to 259 °C.

Take `COc1cc(Nc2cnc3ccc(NC(=S)NCC4CCCCC4)nc3n2)cc(OC)c1OC` [Compound 696, 1-Cyclohexylmethyl-3-[3-(3,4,5-trimethoxy-phenylamino)-pyrido[2,3-b]pyrazin-6-yl]-thiourea]: the melting point is 347 °C.

Turning to `CCNC(=O)Nc1ccc2ncc(-c3ccc4c(c3)N(C)CCO4)nc2n1` [Compound 35, 1-Ethyl-3-[3-(4-methyl-3,4-dihydro-2H-benzo[1,4]oxazin-6-yl)-pyrido[2,3-b]pyrazin-6-yl]-urea], the melting point was in the range of 245 to 247 °C.

`CCNC(=O)Nc1ccc2ncc(-c3ccc(NC(=O)CCC(=O)OC)cc3)nc2n1` [Compound 76, N-{4-[6-(3-Ethyl-ureido)-pyrido[2,3-b]pyrazin-3-yl]-phenyl}-succinamic acid methyl ester] registered a melting point of 253 °C.

Consider `CCCCCNC(=S)Nc1ccc2ncc(Nc3cc(OC)c(OC)c(OC)c3)nc2n1` [Compound 702, 1-Pentyl-3-[3-(3,4,5-trimethoxy-phenylamino)-pyrido[2,3-b]pyrazin-6-yl]-thiourea], for which the melting point was determined as 210 °C.

In turn, `CCNC(=O)Nc1ccc2ncc(-c3ccccc3SC)nc2n1` [Compound 135, 1-Ethyl-3-[3-(2-methylsulfanyl-phenyl)-pyrido[2,3-b]pyrazin-6-yl]-urea] registered a melting point of 182 to 185 °C.

In turn, `CCNC(=O)Nc1ccc2ncc(Nc3ccc(C(=O)N4CCOCC4)cc3)nc2n1` [Compound 48, 1-Ethyl-3-{3-[4-(morpholine-4-carbonyl)-phenylamino]-pyrido[2,3-b]-pyrazin-6-yl}-urea] came in with a melting point of 276 to 279 °C.

`CCNC(=S)Nc1cnc2ccc(Nc3cccc(OC)c3)nc2n1` [Compound 221, 1-Ethyl-3-[6-(3-methoxy-phenylamino)-pyrido[2,3-b]pyrazin-3-yl]-thiourea] registered a melting point of 189 °C.

Compound `CCOC(=O)CCNC(=S)Nc1ccc2ncc(Nc3cc(OC)c(OC)c(OC)c3)nc2n1` [Compound 709, 3-{3-[3-(3,4,5-Trimethoxy-phenylamino)-pyrido[2,3-b]pyrazin-6-yl]-thioureido}-propionic acid ethyl ester] showed a melting point of 244 °C.

The compound `COc1cc(Nc2cnc3ccc(NC(=S)NC(C)c4ccccc4)nc3n2)cc(OC)c1OC` (centres unmarked) [Compound 711, 1-(1-Phenyl-ethyl)-3-[3-(3,4,5-trimethoxy-phenylamino)-pyrido[2,3-b]pyrazin-6-yl]-thiourea] registered a melting point of 248 °C.

With `COc1ccc(-c2ccc3ncc(NC(=O)NC(C)C)nc3n2)cc1OC` [Compound 567, 1-[6-(3,4-Dimethoxy-phenyl)-pyrido[2,3-b]pyrazin-3-yl]-3-isopropyl-urea], the melting point is 233 to 236 °C.

In turn, `CCNC(=O)Nc1ccc2ncc(-c3cccc(Cl)c3)nc2n1` [Compound 111, 1-[3-(3-Chloro-phenyl)-pyrido[2,3-b]pyrazin-6-yl]-3-ethyl-urea] came in with a melting point of 262 to 264 °C.

The compound `COc1cc(-c2ccc3ncc(NC(=O)Nc4cccc5c4ccn5C)nc3n2)ccc1O` [Compound 621, 1-[6-(4-Hydroxy-3-methoxy-phenyl)-pyrido[2,3-b]pyrazin-3-yl]-3-(1-methyl-1H-indol-4-yl)-urea] showed a melting point of 248 to 251 °C.

Regarding `CCNC(=O)Nc1cnc2ccc(-c3ccncc3)nc2n1` [Compound 7, 1-Ethyl-3-(6-pyridin-4-yl-pyrido[2,3-b]pyrazin-3-yl)-urea], the melting point turned out to be 211 °C.

`CCCCNC(=O)Nc1cnc2ccc(-c3ccc(O)c(OC)c3)nc2n1` [Compound 631, 1-Butyl-3-[6-(4-hydroxy-3-methoxy-phenyl)-pyrido[2,3-b]pyrazin-3-yl]-urea] gave a melting point of 223 to 226 °C.

In turn, `CCNC(=O)Nc1ccc2ncc(-c3cccc(OCC)c3)nc2n1` [Compound 130, 1-[3-(3-Ethoxy-phenyl)-pyrido[2,3-b]pyrazin-6-yl]-3-ethyl-urea] showed a melting point of 220 to 223 °C.

In turn, `O=C(NCCc1ccccc1)Nc1cnc2ccc(-c3cc(Cl)c(O)c(Cl)c3)nc2n1` [Compound 564, 1-[6-(3,5-Dichloro-4-hydroxy-phenyl)-pyrido[2,3-b]pyrazin-3-yl]-3-phenethyl-urea] showed a melting point of 280 to 282 °C.

As to `CCNC(=S)Nc1cnc2ccc(Nc3ccc(OC)c(Cl)c3)nc2n1` [Compound 202, 1-[6-(3-Chloro-4-methoxy-phenylamino)-pyrido[2,3-b]pyrazin-3-yl]-3-ethyl-thiourea], the melting point turned out to be 225 °C.

`COc1cc(-c2ccc3ncc(NC(=S)NC4CCCCC4)nc3n2)ccc1O` [Compound 524, 1-Cyclohexyl-3-[6-(4-hydroxy-3-methoxy-phenyl)-pyrido[2,3-b]pyrazin-3-yl]-thiourea] had a melting point of 253 to 254 °C.

With `CCNC(=O)Nc1cnc2ccc(-c3ccc(C(C)=O)s3)nc2n1` [Compound 183, 1-[6-(5-Acetyl-thiophen-2-yl)-pyrido[2,3-b]pyrazin-3-yl]-3-ethyl-urea], the melting point was over 250 °C.
